Data as given in paper PMC6934184, “Selective DNA-PKcs inhibition extends the therapeutic index of localized radiotherapy and chemotherapy” (The Journal of Clinical Investigation, 2019).

Biological target: T1, AMPK (A2/B2/G1) (Homo sapiens, UniProt P54646)
T1 construct: purchased Thermo Fisher Scientific (Life Technologies) SelectScreen
Assay: SelectScreen LanthaScreen
Type: binding
Settings: read-out: % displacement
Method in brief: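 SelectScreen broad panel; activity (Z'LYTE, Adapta) plus binding formats. ATP: Km app for CSF1R Z'LYTE; 10 for CAMK1 Adapta. Readout = % per kinase.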

T1 sequence (P54646 whole entry): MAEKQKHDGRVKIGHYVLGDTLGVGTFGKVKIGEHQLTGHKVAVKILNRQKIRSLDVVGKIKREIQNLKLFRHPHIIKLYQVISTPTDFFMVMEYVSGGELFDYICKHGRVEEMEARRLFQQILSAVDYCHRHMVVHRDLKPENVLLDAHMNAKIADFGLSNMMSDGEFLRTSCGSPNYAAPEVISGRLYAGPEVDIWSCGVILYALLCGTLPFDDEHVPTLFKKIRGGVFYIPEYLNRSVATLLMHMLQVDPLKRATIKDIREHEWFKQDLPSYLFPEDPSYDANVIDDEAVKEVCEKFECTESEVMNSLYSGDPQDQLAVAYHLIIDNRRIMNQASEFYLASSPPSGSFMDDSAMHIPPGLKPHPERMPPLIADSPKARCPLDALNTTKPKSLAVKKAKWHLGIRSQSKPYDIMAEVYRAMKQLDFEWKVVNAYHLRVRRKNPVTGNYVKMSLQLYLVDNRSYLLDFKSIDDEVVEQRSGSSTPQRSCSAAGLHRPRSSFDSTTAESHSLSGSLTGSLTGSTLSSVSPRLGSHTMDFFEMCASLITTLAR
T1 sequence (O43741 whole entry partner): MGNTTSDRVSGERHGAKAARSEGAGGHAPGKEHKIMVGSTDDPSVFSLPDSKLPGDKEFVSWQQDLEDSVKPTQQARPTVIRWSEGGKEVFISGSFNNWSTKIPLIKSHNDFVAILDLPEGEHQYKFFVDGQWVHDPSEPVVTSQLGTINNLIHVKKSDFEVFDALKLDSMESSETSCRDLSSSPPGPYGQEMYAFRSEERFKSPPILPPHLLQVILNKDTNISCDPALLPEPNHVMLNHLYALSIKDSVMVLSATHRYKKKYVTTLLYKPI
T1 sequence (P54619 whole entry partner): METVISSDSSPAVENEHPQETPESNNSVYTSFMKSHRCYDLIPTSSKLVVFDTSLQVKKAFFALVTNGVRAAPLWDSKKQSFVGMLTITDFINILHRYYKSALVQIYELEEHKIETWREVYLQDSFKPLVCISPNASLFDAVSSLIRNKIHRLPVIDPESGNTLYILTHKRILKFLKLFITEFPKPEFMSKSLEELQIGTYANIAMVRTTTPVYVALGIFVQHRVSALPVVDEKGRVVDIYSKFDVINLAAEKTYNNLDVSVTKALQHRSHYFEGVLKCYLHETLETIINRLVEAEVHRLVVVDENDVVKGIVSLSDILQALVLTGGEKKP

CN(C(=O)CN1CCOCC1)c1ccc2sc3c(-c4cccc5c(=O)cc(N6CC7CCC(C6)O7)oc45)cccc3c2c1 [NU5455] was tested. Which inhibition at 1 µM did it give?
Its inhibition at 1 µM is -2.3%.
